Measured values published in patent publication US20260152533A1, “COMBINATION INHIBITORS FOR TREATING FIBROSIS” (Memorial Sloan-Kettering Cancer Center, priority 2021, published 2026).

How the values were obtained:
Type in all cases: cell-based, mouse
[1] = test system: pancreatic stellate cells (PSCs); test: Western blot of PSCs; details: PSCs, TGFβ
Description: PSCs were isolated from C57BL/6 mice by differential centrifugation as previously described^49 and their mesenchymal origin was validated by analyzing the expression of various mesenchymal and epithelial markers. MFBs were isolated from FVB/N mice by differential centrifugation as previously described^50. DB7 mouse breast cancer cells were obtained from Alexander Borowsky (University of California Davis Comprehensive Cancer Center, Sacramento, CA, USA) through an MTA to Ohio State University (OSU). KPC (Kras^LSL-G12D; Trp53^LSL-R172H; Pdx1-Cre) mouse PDAC cells were a gift from Scott Lowe (Memorial Sloan Kettering Cancer Center. (MSKCC)). All cells were cultured at 37° C. in 5% carbon dioxide (CO2) and 20% oxygen (O2) and were maintained in Dulbecco's Modified Eagles medium (DMEM) (25 mM D-glucose, 2 mM L-glutamine) supplemented with 10% fetal bovine serum (FBS) (Gemini), 100 units/ml penicillin and 100 μg/ml streptomycin. Primary PSC and MFB cells were kept in culture for no more than ten passages. Experiments with iCAFs and myCAFs were performed as previously described^29. In brief, qPSCs were generated by culturing PSCs in a dome of GFR Matrigel (Corning) in DMEM; iCAFs were generated by culturing PSCs in a dome of GFR Matrigel in DMEM conditioned by KPC cells for 48 h; myCAFs were generated by monolayer culture of PSCs. Differentiation was validated by analyzing the expression of iCAF/myCAF markers^29. […]
Lysates were generated by incubating cells or ground tumors in RIPA buffer (Millipore); […] of cleared lysate were analyzed by SDS-polyacrylamide gel electrophoresis (SDS-PAGE) as previously described^11. […] Quantification of band intensities of collagen I relative to […] or vinculin in tumor allograft experiments was performed with Image Lab software v6.0 (Bio-Rad).

[2] = test system: pyruvate carboxylase (PC); test: [3,4-13C]-Glc tracing in PSCs (PC activity); details: low Gln (20%), TGFβ 48 hours (FIGS. 10J and 10K)
Experimental: Cells were plated in six-well cell culture plates at a concentration aimed to reach 0.5-1×10^6 cells at the time of harvest. For quantification of relative metabolite abundance, cells were cultured with glutamine-free DMEM containing different concentrations of L-glutamine and supplemented with 10% dialyzed FBS and in some experiments were treated with TGFβ for 48 hours. For the [U-^13C]and [3,4-^13C]glucose tracing experiments, cells were cultured as above, and in the last 8 hours media was replaced with DMEM without D-glucose and L-glutamine supplemented with 2 mM or 0.2 mM L-glutamine and 10 mM [U-^13C]or [3,4-^13C]D-glucose (Cambridge Isotope Laboratories) and 10% dialyzed FBS. […] For relative quantification of metabolites by gas chromatography-mass spectroscopy (GC-MS), cells were washed briefly with PBS, which was then fully aspirated and metabolism was quenched by immediately adding 1 mL of 80:20 methanol:water stored at −80° C. containing 20 μM deuterated 2-hydroxyglutarate (d5-2HG) as an internal standard. […]
GC-MS measurements were performed as described before^11. Ions used for quantification of metabolite levels were as follows: d5-2HG m/z 354; citrate m/z 465; alpha-ketoglutarate m/z 304; succinate m/z 247; fumarate m/z 245; malate m/z 335; aspartate m/z 232; hydroxyproline m/z 332; proline m/z 216; glutamate m/z 246; glutamine m/z 245; lactate m/z 219; pyruvate m/z 174. […]

NIH-3T3 cells = test: Collagen abundance in ECM derived from confluent NIH-3T3 cells; details: 100% and 50% Gln, TGFβ
Experimental: Culture plates were coated with 0.1% gelatin (Sigma) and treated with 1% glutaraldehyde (Sigma) and 1 M ethanolamine (Sigma). Confluent NIH-3T3 cells, MFBs or PSCs were grown for 6 days on coated plates in the presence of […] sodium ascorbate (Sigma) and treated as indicated, and the medium was replaced every other day. Plates were decellularized with 20 mM ammonium hydroxide/0.5% Triton-X 100 for 5 min on a rotating platform. Three times the volume of PBS was added, and ECM was equilibrated overnight at 4° C., followed by four additional PBS washes. For western blot, preheated sample buffer supplemented with 1 mM dithiothreitol (DTT) was added, ECM was scraped off and boiled, and proteins were separated by SDS-PAGE followed by immunoblotting. To measure collagen abundance, fibroblast-derived ECM was stained with the Picro Sirius Red Stain Kit (Abcam) according to the manufacturer's instructions. The stain was extracted with 0.1 M sodium hydroxide (NaOH) and optical density was measured at 550 nm using a microplate reader. Differences in cell number were controlled for by growing cells on separate plates under the same experimental conditions.

PC activity [2]: suppressed
Substance: TGFβ: transforming growth-factor beta; TGFβ-1 purchased from Peprotech
collagen I production ([1]; 20% Gln, 48 hours): unable to proliferate and produce collagen I
GCN2 phosphorylation ([1]; low Gln (20%), 48 hours (FIG. 8J)): showed GCN2 phosphorylation
collagen I levels in the ECM secreted by confluent fibroblasts (NIH-3T3 cells): upregulated
